Data: patent publication US11993603B2, “Preparation for 6-amino-1H-pyrazolo[3,4-d]pyrimidine-based JAK kinase inhibitor and application thereof” (INSTITUTE OF MATERIA MEDICA, CHINESE ACADEMY OF MEDICAL …, priority 2018, dated 2024)
Where two headings read alike, the source gives them in different places.

Legend:
Assay type in all cases: biochemical
JAK-2 = JAK-2 (Homo sapiens (Human), UniProt O60674); experiment: Inhibition test on JAK-2 kinase (FRET peptide substrate assay); settings: kinase 1 nM, 1 h at room temperature
Chain of JAK-2 (O60674 whole entry): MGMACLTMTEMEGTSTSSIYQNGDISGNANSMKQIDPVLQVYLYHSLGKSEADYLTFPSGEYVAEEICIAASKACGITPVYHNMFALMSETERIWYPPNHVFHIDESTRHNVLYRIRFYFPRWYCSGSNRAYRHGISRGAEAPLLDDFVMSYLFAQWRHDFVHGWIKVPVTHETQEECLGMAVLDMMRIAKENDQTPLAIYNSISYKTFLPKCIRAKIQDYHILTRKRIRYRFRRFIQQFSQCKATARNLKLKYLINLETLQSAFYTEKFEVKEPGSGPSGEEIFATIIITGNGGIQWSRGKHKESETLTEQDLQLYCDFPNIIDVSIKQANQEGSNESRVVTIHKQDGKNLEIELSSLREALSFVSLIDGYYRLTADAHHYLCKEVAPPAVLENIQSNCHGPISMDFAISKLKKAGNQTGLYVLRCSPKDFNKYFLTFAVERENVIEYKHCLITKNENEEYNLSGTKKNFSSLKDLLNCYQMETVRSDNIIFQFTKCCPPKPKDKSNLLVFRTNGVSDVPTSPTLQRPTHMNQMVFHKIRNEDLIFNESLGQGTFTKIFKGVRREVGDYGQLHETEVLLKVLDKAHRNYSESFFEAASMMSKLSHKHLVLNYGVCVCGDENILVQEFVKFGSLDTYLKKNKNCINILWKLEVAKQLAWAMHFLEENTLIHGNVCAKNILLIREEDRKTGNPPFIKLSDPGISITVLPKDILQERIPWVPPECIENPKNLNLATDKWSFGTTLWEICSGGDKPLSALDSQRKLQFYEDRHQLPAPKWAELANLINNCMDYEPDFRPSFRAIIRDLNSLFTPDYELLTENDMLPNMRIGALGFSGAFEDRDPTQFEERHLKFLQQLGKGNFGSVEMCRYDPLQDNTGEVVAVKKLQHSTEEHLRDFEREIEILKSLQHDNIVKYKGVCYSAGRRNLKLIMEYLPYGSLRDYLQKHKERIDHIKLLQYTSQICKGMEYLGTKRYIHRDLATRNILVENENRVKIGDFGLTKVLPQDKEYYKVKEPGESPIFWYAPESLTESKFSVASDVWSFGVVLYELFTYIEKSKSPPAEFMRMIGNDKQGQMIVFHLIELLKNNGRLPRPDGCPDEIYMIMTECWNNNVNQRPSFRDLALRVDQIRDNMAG
Description: (§1) Experiment Example (Inhibition Tests on JAK-1, JAK-2 and JAK-3 Kinases)
(§2) To evaluate the inhibitory activity of the compound on JAK-1, JAK-2 and JAK-3 kinases
(§3) A proteolytic enzyme is coupled to exert different proteolysis on a specific phosphorylated and nonphosphorylated peptide substrate based on fluorescence resonance energy transfer (FRET). Both ends of the peptide substrate were respectively labeled FRET energy donor coumarin and energy receptor fluorescein, and at this time, the donor was stimulated to produce energy transfer when the donor is close to a receptor.
(§4) In Kinase Reaction, JAK-1, JAK-2 or JAK-3 may transfer γ-phosphoric acid in ATP onto a single tyrosine residue of a peptide substrate; and there were JAK-1, JAK-2 or JAK-3 inhibitors in the system, γ-phosphoric acid groups on ATP would be not transferred onto the peptide substrate, thus resulting in the failure of phosphorylation. An evaluation experiment was designed based on the principle, a peptide substrate was designed with kinase phosphorylation sites, namely, protein restriction enzyme cutting sites; and both ends thereof were respectively connected with 2 fluorophores as a donor and a receptor respectively; if the kinase kept activity in the system, a γ-phosphonic acid group was transferred onto restriction enzyme cutting sites of the substrate, so that the γ-phosphonic acid group would not be cut and separated into two segments by a protease; moreover, under the stimulation of a laser having a specific wavelength, energy from a segment of fluorescence would be transferred onto another end of fluorophores, thus emitting energy. Otherwise, after kinase activity was inhibited, phosphoric acid groups would be not transferred, and restriction enzyme cutting sites in the substrate would be cut by a […] in the system to separate the substrate into two segments, thereby no energy transfer of fluorescence occurred. Based on this, the activity of the kinase was evaluated.
(§5) In this experiment, a 10 μl kinase reaction system was selected, firstly, 2.5 μl kinase (concentration: 1 nM), 2.5 μl peptide substrate (concentration: 2 μM), 2.5 μl ATP (concentration: […]) and 2.5 μl compound were added to each system for reaction for 1 h at room temperature, and then a 5 μl test solution was added for reaction for 1 h at room temperature, then a 5 μl stop buffer was added. A microplate reader (Synergy H1, BioTek, USA) was used to measure fluorescence intensity (emission intensity of coumarin at 445 nm and emission intensity of fluorescein at 520 nm were detected under the stimulation of 400 nm). The inhibitory activity of each compound was calculated, where it was believed that fluorescence intensity of a well not containing the kinase was 100% inhibited.

JAK-3 = JAK-3 (Homo sapiens (Human), UniProt P52333); experiment: Inhibition test on JAK-3 kinase (FRET peptide substrate assay)
Chain of JAK-3 (P52333 whole entry): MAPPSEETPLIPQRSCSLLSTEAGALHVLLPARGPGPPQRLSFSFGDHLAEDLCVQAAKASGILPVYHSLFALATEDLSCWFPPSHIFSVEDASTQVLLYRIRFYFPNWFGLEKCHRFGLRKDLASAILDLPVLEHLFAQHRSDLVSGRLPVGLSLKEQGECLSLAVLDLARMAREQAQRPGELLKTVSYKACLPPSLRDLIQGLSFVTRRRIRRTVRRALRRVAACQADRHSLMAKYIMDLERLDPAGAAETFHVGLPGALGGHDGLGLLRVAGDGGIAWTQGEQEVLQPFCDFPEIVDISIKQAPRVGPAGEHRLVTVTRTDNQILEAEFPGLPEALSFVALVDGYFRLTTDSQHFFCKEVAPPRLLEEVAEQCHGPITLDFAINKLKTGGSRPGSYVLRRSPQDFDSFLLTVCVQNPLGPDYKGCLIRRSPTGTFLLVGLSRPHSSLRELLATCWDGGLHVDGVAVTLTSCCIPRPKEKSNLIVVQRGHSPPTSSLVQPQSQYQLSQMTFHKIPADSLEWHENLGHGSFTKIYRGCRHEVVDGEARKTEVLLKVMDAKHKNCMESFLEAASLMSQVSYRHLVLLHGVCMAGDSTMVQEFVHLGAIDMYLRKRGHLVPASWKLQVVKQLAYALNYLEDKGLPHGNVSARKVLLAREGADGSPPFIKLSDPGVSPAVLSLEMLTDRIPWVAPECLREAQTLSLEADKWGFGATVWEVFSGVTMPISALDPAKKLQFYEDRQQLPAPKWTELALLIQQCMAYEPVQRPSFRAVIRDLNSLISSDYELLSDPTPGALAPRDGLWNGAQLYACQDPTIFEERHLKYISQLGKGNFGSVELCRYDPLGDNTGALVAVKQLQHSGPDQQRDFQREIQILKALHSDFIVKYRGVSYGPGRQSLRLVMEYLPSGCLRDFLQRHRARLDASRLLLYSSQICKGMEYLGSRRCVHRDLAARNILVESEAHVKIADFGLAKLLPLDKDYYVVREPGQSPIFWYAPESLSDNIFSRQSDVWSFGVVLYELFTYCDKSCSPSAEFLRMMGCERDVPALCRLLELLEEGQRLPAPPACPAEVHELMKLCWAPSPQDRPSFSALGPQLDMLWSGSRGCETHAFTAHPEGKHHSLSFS
Description: as §1, §2, §3, §4, §5

JAK-1 = JAK-1 (Homo sapiens (Human), UniProt P23458); experiment: Inhibition test on JAK-1 kinase (FRET peptide substrate assay); settings: kinase 1 nM, 1 h at room temperature
Chain of JAK-1 (P23458 whole entry): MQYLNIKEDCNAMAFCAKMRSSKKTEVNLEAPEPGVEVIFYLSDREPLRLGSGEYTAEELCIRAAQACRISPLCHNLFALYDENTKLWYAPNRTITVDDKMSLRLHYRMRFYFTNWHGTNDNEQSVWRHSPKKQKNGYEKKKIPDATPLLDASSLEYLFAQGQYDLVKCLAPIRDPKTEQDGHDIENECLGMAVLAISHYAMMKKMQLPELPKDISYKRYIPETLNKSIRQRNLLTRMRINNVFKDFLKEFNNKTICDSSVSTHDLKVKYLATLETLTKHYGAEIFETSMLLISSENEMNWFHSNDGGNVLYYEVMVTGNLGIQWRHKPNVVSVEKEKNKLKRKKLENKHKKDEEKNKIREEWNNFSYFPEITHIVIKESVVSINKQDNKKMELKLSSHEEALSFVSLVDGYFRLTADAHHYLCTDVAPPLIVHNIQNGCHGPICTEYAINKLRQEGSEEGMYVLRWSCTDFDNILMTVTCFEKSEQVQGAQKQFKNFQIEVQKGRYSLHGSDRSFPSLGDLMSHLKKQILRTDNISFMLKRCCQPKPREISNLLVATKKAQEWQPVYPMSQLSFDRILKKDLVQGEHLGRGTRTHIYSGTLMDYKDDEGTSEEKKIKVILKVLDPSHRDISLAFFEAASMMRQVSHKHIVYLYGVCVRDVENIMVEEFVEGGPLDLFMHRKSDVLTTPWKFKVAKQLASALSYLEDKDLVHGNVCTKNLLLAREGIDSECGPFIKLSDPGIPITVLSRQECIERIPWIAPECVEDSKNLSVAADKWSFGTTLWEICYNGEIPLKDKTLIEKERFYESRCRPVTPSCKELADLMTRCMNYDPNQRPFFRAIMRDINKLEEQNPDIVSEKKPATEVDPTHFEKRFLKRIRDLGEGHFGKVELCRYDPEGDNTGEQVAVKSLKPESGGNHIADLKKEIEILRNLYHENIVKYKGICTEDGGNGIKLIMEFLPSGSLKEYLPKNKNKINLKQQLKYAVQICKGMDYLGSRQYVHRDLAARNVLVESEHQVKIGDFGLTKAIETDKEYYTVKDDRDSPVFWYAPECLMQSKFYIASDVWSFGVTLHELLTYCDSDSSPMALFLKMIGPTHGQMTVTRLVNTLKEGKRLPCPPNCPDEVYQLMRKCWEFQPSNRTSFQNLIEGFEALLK
Description: as §1, §2, §3, §4, §5

[1] = kinase 1 nM, 1 h at room temperature, read-out: IC50 (nM) JAK-3

For `C=CC(=O)Nc1cccc(Cn2ncc3cnc(Nc4cnn(CCOC)c4)nc32)c1` [Example 1, N-(3-((6-((1-(2-methoxyethyl)-1H-pyrazol-4-yl)amino)-1H-pyrazolo[3,4-d]pyrimidine-1-yl)methyl)phenyl)acrylamide], the IC50 (JAK-2) was 747 nM, the IC50 (JAK-3; differs from Table 5, read-out: JAK-3 inhibitory activity IC50) was 0.085 nM and the IC50 (JAK-3; [1]) was 1.4 nM.

`C=CC(=O)Nc1cccc(Cn2ncc3cnc(Nc4cnn(C)c4)nc32)c1` [Example 2] gave an IC50 (JAK-1) of 1390 nM, an IC50 (JAK-2) of 941 nM and an IC50 (JAK-3; [1]) of 2.2 nM.

`C=CC(=O)Nc1cccc(Cn2ncc3cnc(Nc4cnn(CCO)c4)nc32)c1` [Example 3, N-(3-((6-((1-(2-hydroxyethyl)-1H-pyrazol-4-yl)amino)-1H-pyrazolo[3,4-d]pyrimidin-1-yl)methyl)phenyl)acrylamide] was tested, and the IC50 (JAK-1) was 829 nM, the IC50 (JAK-2) was 4220 nM and the IC50 (JAK-3; [1]) was 0.13 nM.

For `C=CC(=O)Nc1cccc(Cn2ncc3cnc(Nc4ccccc4)nc32)c1` [Example 4, N-(3-((6-aniline-1H-pyrazolo[3,4-d]pyrimidin-1-yl)methyl)phenyl)acrylamide], the IC50 (JAK-1) was 901 nM, the IC50 (JAK-2) was 1120 nM and the IC50 (JAK-3; [1]) was 1.1 nM.

For `C=CC(=O)Nc1cccc(Cn2ncc3cnc(Nc4ccc(F)cc4)nc32)c1` [Example 5, N-(3-((6-((4-fluorophenyl)amino)-1H-pyrazolo[3,4-d]pyrimidin-1-yl)methyl)phenyl)acrylamide], the IC50 (JAK-1) was 1580 nM, the IC50 (JAK-2) was 1800 nM and the IC50 (JAK-3; [1]) was 3.7 nM.

`C=CC(=O)Nc1cccc(Cn2ncc3cnc(Nc4ccc(N5CCOCC5)cc4)nc32)c1` [Example 6, N-(3-((6-((4-morpholinylphenyl)amino)-1H-pyrazolo[3,4-d]pyrimidin-1-yl)methyl)phenyl)acrylamide] was tested, and the IC50 (JAK-1) was 1000 nM, the IC50 (JAK-2) was 3100 nM and the IC50 (JAK-3; [1]) was 0.1 nM.

Work on `C=CC(=O)Nc1cccc(Cn2ncc3cnc(Nc4ccc(N5CCN(C)CC5)cc4)nc32)c1` [Example 7, N-(3-((6-((4-(4-methylpiperazin-1-yl)phenyl)amino)-1H-pyrazolo[3,4-d]pyrimidin-1-yl)methyl)phenyl)acrylamide] yielded an IC50 (JAK-1) of 942 nM, an IC50 (JAK-2) of 1080 nM and an IC50 (JAK-3; [1]) of 6.1 nM.

Work on `C/C=C/C(=O)Nc1cccc(Cn2ncc3cnc(Nc4cnn(CCOC)c4)nc32)c1` [Example 8, N-(3-((6-((1-(2-methoxy-ethyl)-1H-pyrazol-4-yl)amino)-1H-pyrazolo[3,4-d]pyrimidine-1-yl)methyl)phenyl)but-2-enamide] yielded an IC50 (JAK-1) of 701 nM, an IC50 (JAK-2) of 610 nM and an IC50 (JAK-3; [1]) of 3 nM.

`C/C=C/C(=O)Nc1cccc(Cn2ncc3cnc(Nc4cnn(C)c4)nc32)c1` [Example 9, N-(3-((6-((1-methyl-1H-pyrazol-4-yl)amino)-1H-pyrazolo[3,4-d]pyrimidin-1-yl)methyl)phenyl)but-2-enamide] gave an IC50 (JAK-1) of 618 nM, an IC50 (JAK-2) of 860 nM and an IC50 (JAK-3; [1]) of 2.1 nM.

`C/C=C/C(=O)Nc1cccc(Cn2ncc3cnc(Nc4cnn(CCO)c4)nc32)c1` [Example 10, N-(3-((6-((1-(2-hydroxyethyl)-1H-pyrazol-4-yl)amino)-1H-pyrazolo[3,4-d]pyrimidin-1-yl)methyl)phenyl)but-2-enamide] gave an IC50 (JAK-1) of 940 nM, an IC50 (JAK-2) of 960 nM and an IC50 (JAK-3; [1]) of 0.7 nM.

In the case of `C/C=C/C(=O)Nc1cccc(Cn2ncc3cnc(Nc4ccccc4)nc32)c1` [Example 11, N-(3-((6-aniline-1H-pyrazolo[3,4-d]pyrimidin-1-yl)methyl)phenyl)but-2-enamide], the IC50 (JAK-1) is reported as 830 nM, the IC50 (JAK-2) is reported as 690 nM and the IC50 (JAK-3; [1]) is reported as 1.4 nM.

`C/C=C/C(=O)Nc1cccc(Cn2ncc3cnc(Nc4ccc(F)cc4)nc32)c1` [Example 12, N-(3-((6-((4-fluorophenyl)amino)-1H-pyrazolo[3,4-d]pyrimidin-1-yl)methyl)phenyl)but-2-enamide] gave an IC50 (JAK-1) of 1030 nM, an IC50 (JAK-2) of 2310 nM and an IC50 (JAK-3; [1]) of 0.2 nM.

With `C/C=C/C(=O)Nc1cccc(Cn2ncc3cnc(Nc4ccc(N5CCOCC5)cc4)nc32)c1` [Example 13, N-(3-((6-((4-morpholinylphenyl)amino)-1H-pyrazolo[3,4-d]pyrimidin-1-yl)methyl)phenyl)but-2-enamide] the IC50 (JAK-1) was 890 nM, the IC50 (JAK-2) was 710 nM and the IC50 (JAK-3; [1]) was 0.4 nM.
